The values that follow come from PMC5007854, “β-Nitrostyrenes as Potential Anti-leishmanial Agents” (Frontiers in Microbiology, 2016).

Converted amounts (≈) assume the structure as drawn. Where two headings read alike, the source gives them in different places.

In data set [1] the test system is Aspergillus fumigatus ATCC 16424. Put plainly: Broth microdilution antifungal susceptibility (MIC/MFC). Type of data set: cell-based. The conditions noted are these: for MIC / MFC: Aspergillus fumigatus; for MIC: ATCC16424, 48 h. The gist of the method: (§1)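 CLSI broth microdilution: Ca/Mg-supplemented Mueller-Hinton for bacteria (~5 × 10^5 CFU/mL, 24 h), MOPS-buffered RPMI 1640 pH 7.0 for fungi (Candida ~2.5 × 10^4, Aspergillus 0.4-5 × 10^4 CFU/mL, 48 h), 35°C, 1% DMSO, 64 to 0.12 μg/mL. MIC read visually; MBC/MFC by plating clear wells.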

The test system of data set [2] is Aspergillus niger ATCC 16404. Described as above. The format is cell-based. The following applies: for MIC / MFC: Aspergillus niger; for MIC: ATCC16404, 48 h. An outline of the steps:
as §1

The subject of data set [3] is Candida albicans ATCC 90028. Described as above. Type of data set: cell-based. The following applies: for MIC / MFC: Candida albicans; for MIC: ATCC90028, 48 h. The gist of the method:
as §1

For data set [4], the system named is Candida glabrata ATCC 90030. Described as above. The format is cell-based. The conditions noted are these: for MIC / MFC: Nakaseomyces glabratus; for MIC: ATCC90030, 48 h. An outline of the steps: as §1
The test system of data set [5] is gram-positive bacteria (S. aureus and S. epidermidis). Put plainly: Broth microdilution, pooled statement for gram-positive bacteria. The format is cell-based. The conditions noted are these: Staphylococcus aureus; range over both strains. The text has this: (§2) One reference each of the following species was used for their in vitro susceptibility to β-nitrostyrene in this study: Staphylococcus aureus ATCC 29213, Staphylococcus epidermidis ATCC 14990, Escherichia coli ATCC 25922, Pseudomonas aeruginosa ATCC 27853, Candida albicans ATCC 90028, Candida glabrata ATCC 90030, Aspergillus fumigatus ATCC 16424 and Aspergillus niger ATCC 16404. These strains were procured from the American Type Culture Collection (ATCC, Manassas, VA, USA).
(§3) The antibacterial and antifungal activities of the β-nitrostyrenes were performed by broth microdilution methods as per the guidelines of Clinical and Laboratory Standard Institute (Wayne, [1998], [2008a],[b],[c]) by using Mueller-Hinton broth (MHB; Becton-Dickinson, Cockeysville, MD, USA) supplemented with calcium (25 mg/L) and magnesium (12.5 mg/L) for bacterial strains while as RPMI 1640 medium with L-glutamine and without sodium bicarbonate, buffered to pH 7.0 with 0.165 M 3-(N-morpholino) propanesulfonic acid (MOPS; both from Sigma) was used for fungal strains. […] The plates were read visually and the minimum inhibitory concentration (MIC) was defined as the lowest concentration of test sample that prevented visible growth with respect to the growth control.

For data set [6], the system named is Candida species. In words: Broth microdilution, pooled statement for Candida species. Type of data set: cell-based. The conditions noted are these: range over C. albicans and C. glabrata.
Description: as §2, §3
Background: In broth dilution the organism is exposed to a series of concentrations in liquid medium.

Data set [7] has as its system Aspergillus species. In words: Broth microdilution, pooled statement for Aspergillus species. The following applies: range over A. fumigatus and A. niger. The format is cell-based.
Description: as §2, §3

Where [8] appears, read: read-out: MIC, Af ATCC 16424, broth microdilution, 35°C, 48 h.
Setting [9] is: ATCC16424, read-out: MFC, Af ATCC 16424.
The mark [10] stands for this setting: broth microdilution, 35°C, 48 h.
[11] abbreviates: read-out: MIC, An ATCC 16404, broth microdilution, 35°C, 48 h.
The mark [12] stands for this setting: ATCC16404, read-out: MFC, An ATCC 16404.
[13] abbreviates: read-out: MIC, Ca ATCC 90028, broth microdilution, 35°C, 48 h.
[14] abbreviates: ATCC90028, read-out: MFC, Ca ATCC 90028.
[15] abbreviates: read-out: MIC, Cg ATCC 90030, broth microdilution, 35°C, 48 h.
Where [16] appears, read: ATCC90030, read-out: MFC, Cg ATCC 90030.
Where [17] appears, read: broth microdilution, 35°C, 48 h, read-out: MIC, Af ATCC 16424.
[18] abbreviates: ATCC16424, ≥99.9% reduction of original inoculum, read-out: MFC, Af ATCC 16424.
[19] abbreviates: broth microdilution, 35°C, 48 h, read-out: MIC, An ATCC 16404.
Where [20] appears, read: ATCC16404, ≥99.9% reduction of original inoculum, read-out: MFC, An ATCC 16404.
Where [21] appears, read: ATCC90028, ≥99.9% reduction of original inoculum, read-out: MFC, Ca ATCC 90028.
Setting [22] is: ATCC90030, ≥99.9% reduction of original inoculum, read-out: MFC, Cg ATCC 90030.

Take `CC/C(=C\c1ccc([N+](=O)[O-])cc1)[N+](=O)[O-]` [Compound 9, 1-nitro-4-((E)-2-nitrobut-1-enyl) benzene]: the melting point lay within 104 to 106 °C. Besides, the MIC in data set [1] (setting [8]) was 4 to 8 µg/mL (≈ 18 to 36 µM). Further, in data set [1] (setting [9]), the MFC was determined as 8 µg/mL (≈ 36 µM). In addition, the “MIC, Af ATCC 16424” value in data set [1] (setting [10]) was determined as 8 µg/mL (≈ 36 µM). Besides, in data set [2] (setting [11]), the MIC was in the range of 2 to 4 µg/mL (≈ 9 to 18 µM). For the same compound, the MFC in data set [2] (setting [12]) is 4 µg/mL (≈ 18 µM). The “MIC, An ATCC 16404” value in data set [2] (setting [10]) amounted to 4 µg/mL (≈ 18 µM). Further, the minimal inhibitory concentration (MIC) in data set [3] (setting [13]) lay in the range of 4 to 32 µg/mL (≈ 18 to 144 µM). In addition, the MFC in data set [3] (setting [14]) was 8 µg/mL (≈ 36 µM). Further, the “MIC, Ca ATCC 90028” value in data set [3] (setting [10]) amounted to 8 µg/mL (≈ 36 µM). For the same compound, the MIC in data set [4] (setting [15]) was 0.25 to 16 µg/mL (≈ 1.13 to 72 µM). The MFC in data set [4] (setting [16]) stood at 0.25 µg/mL (≈ 1.13 µM). For the same compound, the “MIC, Cg ATCC 90030” value in data set [4] (setting [10]) came to 0.25 µg/mL (≈ 1.13 µM).

`CC/C(=C\c1cccc([N+](=O)[O-])c1)[N+](=O)[O-]` [Compound 12, 1-nitro-3-((E)-2-nitrobut-1-enyl) benzene]: the melting point lay in the range of 84 to 86 °C. For the same compound, in data set [1] (setting [8]), the MIC is 1 µg/mL (≈ 4.5 µM). In addition, the MFC in data set [1] (setting [9]) amounted to 1 µg/mL (≈ 4.5 µM). For the same compound, the MIC in data set [2] (setting [11]) amounted to 0.5 µg/mL (≈ 2.25 µM). Further, the MFC in data set [2] (setting [12]) worked out at 0.5 µg/mL (≈ 2.25 µM). For the same compound, the MIC in data set [3] (setting [13]) amounted to 2 µg/mL (≈ 9 µM). Moreover, the MFC in data set [3] (setting [14]) was 2 µg/mL (≈ 9 µM). The MIC in data set [4] (setting [15]) came to 0.25 µg/mL (≈ 1.13 µM). The MFC in data set [4] (setting [16]) was found to be 0.25 µg/mL (≈ 1.13 µM). The compound also gave an MIC in data set [5] of 0.25 to 0.5 µg/mL (≈ 1.13 to 2.25 µM). In data set [6], this compound registered a minimum inhibitory concentration (MIC) of 0.25 to 2 µg/mL (≈ 1.13 to 9 µM). Further, the MIC in data set [7] lay within 0.5 to 1 µg/mL (≈ 2.25 to 4.5 µM).

For the compound `COc1ccc(/C=C(\C)[N+](=O)[O-])cc1` [Compound 14, 1-methoxy-4-((E)-2-nitroprop-1-enyl) benzene], the MIC in data set [1] (setting [17]) was 8 µg/mL (≈ 41.4 µM); in data set [2] (setting [19]) it was 4 µg/mL (≈ 20.7 µM); in data set [3] (broth microdilution, 35°C, 48 h, read-out: MIC, Ca ATCC 90028), 32 µg/mL (≈ 166 µM); in data set [4] (broth microdilution, 35°C, 48 h, read-out: MIC, Cg ATCC 90030), 8 µg/mL (≈ 41.4 µM). In addition, the MFC in data set [1] (setting [18]) was 8 µg/mL (≈ 41.4 µM); in data set [2] (setting [20]), 4 µg/mL (≈ 20.7 µM); in data set [3] (setting [21]) it was 32 µg/mL (≈ 166 µM); in data set [4] (setting [22]) it was 8 µg/mL (≈ 41.4 µM).

`CC/C(=C\c1ccc(O)cc1)[N+](=O)[O-]` [Compound 18, 4-((E)-2-nitrobut-1-enyl) phenol]: the MIC in data set [1] (setting [17]) is 4 to 8 µg/mL (≈ 20.7 to 41.4 µM); in data set [2] (setting [19]), 2 to 4 µg/mL (≈ 10.4 to 20.7 µM). The MFC worked out at 16 µg/mL (≈ 82.8 µM) in data set [1] (setting [18]), 8 µg/mL (≈ 41.4 µM) in data set [2] (setting [20]), 16 µg/mL (≈ 82.8 µM) in data set [3] (setting [21]) and 8 µg/mL (≈ 41.4 µM) in data set [4] (setting [22]). Further, the “MIC, Af ATCC 16424” value in data set [1] (setting [10]) is 8 µg/mL (≈ 41.4 µM). Also, in data set [2] (setting [10]), the “MIC, An ATCC 16404” value turned out to be 4 µg/mL (≈ 20.7 µM).

Broadly, the MIC is the least concentration at which growth counts as inhibited. The term MFC denotes the smallest concentration meeting the test's criterion for killing the fungus. The term melting point denotes the temperature of the solid-liquid transition.
